Consider seven compounds from patent US12378250B2, “Tricyclic compound as IRAK4 inhibitor” (KOREA RESEARCH INSTITUTE OF CHEMICAL TECHNOLOGY, priority 2018, dated 2025).

Each structure is given as a SMILES string.

Assay [1] deals with TNF-α secretion, peripheral blood mononuclear cells (PBMCs). The assay is described as follows: Suppression of TNF-α secretion in LPS-treated PBMCs (ELISA). The format is cell-based. The conditions noted are these: PBMC, 100 ng/ml LPS, 24 hours, read-out: TNF-α, % inhibition degree. As to the method: (§1) Peripheral blood mononuclear cells (PBMCs) isolated from whole blood were distributed in a 96-well plate. TNF-α was aliquoted at a density of 1×10^5 cells/well, IFN-α was aliquoted at a density of 2×10^5 cells/well, and TNF-α and IFN-α were treated with a compound diluted to 4-fold of a final concentration and totally cultured for 30 minutes. TNF-α was treated with 100 ng/ml lipopolysaccharide (LPS), IFN-α was treated with 500 nM ODN2216 (CpGTLR9 stimulator), and TNF-α and IFN-α were further cultured for 24 hours and 72 hours, respectively. An enzyme-linked immunosorbent assay (ELISA) was performed on TNF-α and IFN-α using an ELISA kit manufactured by BD Biosciences and an ELISA kit manufactured by PBL Assay Science, Inc., respectively. A cell supernatant and a standard drug were put into the ELISA plates and reacted for 2 hours. The plates were washed and a measurement antibody and streptavidin-HRP were sequentially added thereto. After the plates were washed, a TMB substrate was added thereto and reacted in a dark place. The reaction was stopped by adding a stop solution thereto, and the absorbance at 450 nm and 570 nm was measured using an absorber (OPTIMax tunable microplate reader, molecular devices). The experimental results are shown in [Table 2].

The subject of assay [2] is ISG promoter, THP1-Lucia™ ISG cell line. The assay is described as follows: ISG promoter inhibition, THP1-Lucia ISG cell line. The format is cell-based. Conditions: 1 μg/ml Poly(dA:dT)/LyoVec, 24 hours, read-out: ISG, % inhibition degree. As to the method: (§2) A THP1-Lucia™ NF-κB cell line (Invivogen) was used in an NF-κB inhibition experiment, and a THP1-Lucia™ ISG cell line was used in an ISG inhibition experiment. In the NF-κB inhibition experiment, cells were planted at a density of 1×10^4 cells/well in a 96-well plate, and in the ISG inhibition experiment, cells were planted at a density of 2×10^4 cells/well in a 96-well plate. The cells were treated with a compound diluted to 4-fold of a final concentration, and totally cultured for 30 minutes. NF-κB was treated with 100 ng/ml lipopolysaccharide (LPS), ISG was treated with a stimulator of 1 μg/ml Poly(dA:dT)/LyoVec, and NF-κB and ISG were cultured for 24 hours. 10 μl of a cell supernatant was taken and transferred to a 96-well plate. 50 μl of a Quanti-luc solution was aliquoted using an automatic aliquoter of a measurer (Envision Multilabel Plate Reader, Perkin Elmer, Inc.), and light emission signals were measured.

The subject of assay [3] is TNF-α in serum, LPS-induced systemic inflammatory disease. Nature of the assay: Suppressive effects on LPS-induced systemic inflammatory disease in mice (serum TNF-α). The format is in vivo, C57BL/6 mice. Conditions: doses of 50 and 100 mg/kg, oral, 2 hours prior to LPS 15 mg/kg i.p. As to the method: As experimental animals, 8-week-old C57BL/6 (20 to 23 g) mice were supplied from Orient Bio Co., Ltd. (Seongnam, Gyeonggi-do) and used. The mice were acclimatized for 2 weeks or more in an animal room of the Korea Research Institute of Chemical Technology, where temperature (22±1° C.) and humidity (50±10%) were automatically adjusted, and then used for experiments, and allowed to freely ingest water and feed. This animal experiment was performed with the approval of the Animal Care and Use Committee of the Korea Research Institute of Chemical Technology. A systemic inflammatory disease was induced by administering a dose of 15 mg/kg lipopolysaccharide (LPS, Sigma L2880) intraperitoneally to the mice. A test drug was suspended in a 10% Cremophor solution and administered orally 2 hours prior to LPS injection, the mice were anesthetized with isoflurane 1 hour after LPS administration, and blood was collected from the heart. Serum was obtained by centrifuging the collected blood at 13,000 rpm for 15 minutes, store at −20° C., and then taken if needed to measure the content of cytokine (TNF-α) in serum using an ELISA kit manufactured by BD Biosciences. […]

Assay [4] has as its system NF-κB promoter, THP1-Lucia™ NF-κB cell line. Nature of the assay: NF-κB promoter inhibition, THP1-Lucia NF-κB cell line. It is filed as cell-based. Conditions: 100 ng/ml LPS, 24 hours, read-out: NF-κB, % inhibition degree. As to the method: as §2
The target of another assay is T1, IRAK4 enzyme (Homo sapiens, UniProt Q9NWZ3).
T1 sequence (Q9NWZ3 1-460): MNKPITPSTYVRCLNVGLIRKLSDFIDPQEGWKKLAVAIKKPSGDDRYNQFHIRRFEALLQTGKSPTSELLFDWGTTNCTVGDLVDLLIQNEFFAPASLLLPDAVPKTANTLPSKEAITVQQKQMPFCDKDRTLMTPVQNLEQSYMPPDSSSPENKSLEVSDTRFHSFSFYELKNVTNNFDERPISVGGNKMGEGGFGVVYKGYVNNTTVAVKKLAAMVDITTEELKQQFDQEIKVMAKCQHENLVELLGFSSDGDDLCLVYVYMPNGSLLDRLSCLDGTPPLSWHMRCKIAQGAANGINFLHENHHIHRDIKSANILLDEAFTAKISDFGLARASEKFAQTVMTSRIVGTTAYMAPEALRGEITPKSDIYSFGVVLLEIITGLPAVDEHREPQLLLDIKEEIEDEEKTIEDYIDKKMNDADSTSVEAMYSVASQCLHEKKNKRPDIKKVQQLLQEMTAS
The assay is described as follows: IRAK4 enzyme inhibition degree (bead-based kinase assay, peptide substrate BMKC-2, 100 μM ATP). The format is biochemical. Conditions: for inhibition at 1 µM: compound 1 μM. The gist of the method: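 IRAK4 (0.4 ng/μl stock) preincubated 10 min with compound, then 6 μM BMKC-2 peptide with 100 μM ATP (mix concentrations) for 60 min at room temperature; EDTA stop. Phospho-Thr antibody with AlphaScreen donor/acceptor beads detected product; % inhibition versus controls, IC50 by non-linear regression.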

Assay [5] relates to IFN-α secretion, peripheral blood mononuclear cells (PBMCs). Nature of the assay: Suppression of IFN-α secretion in ODN2216-treated PBMCs (ELISA). The format is cell-based. Conditions: PBMC, 500 nM ODN2216, 72 hours, read-out: IFN-α, % inhibition degree. As to the method:
as §1

`COc1cncc(-c2ccc3[nH]c4ncnc(N[C@H]5CC[C@H](N6CCOCC6)CC5)c4c3c2)c1` [Compound 6aad, 6-(5-methoxypyridin-3-yl)-N-(trans-4-morpholinocyclohexyl)-9H-pyrimido[4,5-b]indole-4-amine]: the inhibition at 0.1 µM in assay [1] came to 42%; in assay [2], 37%; in assay [4], 33%; in assay [5] it was 31%. Further, the inhibition at 1 µM was determined as 105% in assay [1]; 79% in assay [2]; 78% in assay [4]; 100% at IRAK4 enzyme; 104% in assay [5]. In addition, the “suppressive effect on systemic inflammation (serum TNF-α) compared to PF-06650833” value in assay [3] is “better suppressive effect than PF-06650833”.

As for `c1ncc(-c2ccc3[nH]c4ncnc(N[C@H]5CC[C@H](N6CCOCC6)CC5)c4c3c2)cn1` [Compound 6aac, N-(trans-4-morpholinocyclohexyl)-6-(pyrimidin-5-yl)-9H-pyrimido[4,5-b]indole-4-amine], the inhibition at 0.1 µM worked out at 24% in assay [1], 7% in assay [2], 17% in assay [4] and 21% in assay [5]. Further, the inhibition at 1 µM in assay [1] amounted to 86%; in assay [2], 45%; in assay [4], 64%; at IRAK4 enzyme, 100%; in assay [5], 84%. The compound further returned a concentration for half-maximal inhibition (IC50) against IRAK4 enzyme of 12.6 nM.

Turning to `Cn1cc(-c2ccc3[nH]c4ncnc(N[C@H]5CC[C@H](N6CCOCC6)CC5)c4c3c2)cn1` [Compound 6aaa, 6-(1-methyl-1H-pyrazol-4-yl)-N-(trans-4-morpholinocyclohexyl)-9H-pyrimido[4,5-b]indole-4-amine], the inhibition at 0.1 µM in assay [1] was found to be 10.5%; in assay [2], 17%; in assay [4], 23%; in assay [5], 20%. Moreover, the inhibition at 1 µM in assay [1] came to 42%; in assay [2], 55%; in assay [4] it was 71%; on IRAK4 enzyme it was 100%; in assay [5], 21%. For the same compound, half-maximal inhibition on IRAK4 enzyme (IC50) was put at 28 nM.

For `CCOC(=O)c1ccc2[nH]c3ncnc(N[C@H]4CC[C@H](N(C)C)CC4)c3c2c1` [Compound 5bb, ethyl 4-((trans-4-(dimethylamino)cyclohexyl)amino)-9H-pyrimido[4,5-b]indole-6-carboxylate], the inhibition at 0.1 µM was determined as 7.3% in assay [1], 43% in assay [2], 58% in assay [4] and 27.3% in assay [5]. Moreover, the inhibition at 1 µM in assay [1] came out at 47%; in assay [2], 73%; in assay [4] it was 92%; against IRAK4 enzyme, 83%; in assay [5], 90%. Moreover, the IC50 against IRAK4 enzyme is 21 nM.

Consider `Cn1cc(-c2ccc3[nH]c4ncnc(N[C@H]5CC[C@H](N6CCN(S(C)(=O)=O)CC6)CC5)c4c3c2)cn1` [Compound 6aca, 6-(1-methyl-1H-pyrazol-4-yl)-N-(trans-4-(4-(methylsulfonyl)piperazin-1-yl)cyclohexyl)-9H-pyrimido[4,5-b]indole-4-amine], for which the inhibition at 0.1 µM in assay [1] was found to be 29%; in assay [2], 23%; in assay [4] it was 28%; in assay [5], 40%. For the same compound, the inhibition at 1 µM in assay [1] worked out at 107%; in assay [2], 73%; in assay [4], 85%; against IRAK4 enzyme, 100%; in assay [5] it was 99%. This compound came in with a concentration for half-maximal inhibition (IC50) at IRAK4 enzyme of 13.8 nM.

In the case of `c1cc(-c2ccc3[nH]c4ncnc(N[C@H]5CC[C@H](N6CCOCC6)CC5)c4c3c2)ccn1` [Compound 6aab, N-(trans-4-morpholinocyclohexyl)-6-(pyridin-4-yl)-9H-pyrimido[4,5-b]indole-4-amine], the inhibition at 0.1 µM in assay [1] worked out at 44%; in assay [2], 11%; in assay [4], 8%; in assay [5], 31%. In addition, the inhibition at 1 µM in assay [1] was found to be 114%; in assay [2], 54%; in assay [4] it was 61%; against IRAK4 enzyme it was 100%; in assay [5], 94%. This compound returned a 50% inhibitory concentration (IC50) against IRAK4 enzyme of 18.4 nM.

As for `O=[N+]([O-])c1cccc(-c2ccc3[nH]c4ncnc(N[C@H]5CC[C@H](N6CCOCC6)CC5)c4c3c2)c1` [Compound 6aai, N-(trans-4-morpholinocyclohexyl)-6-(3-nitrophenyl)-9H-pyrimido[4,5-b]indole-4-amine], the inhibition at 0.1 µM in assay [1] turned out to be 13%; in assay [2], 9%; in assay [4], 6%; in assay [5] it was 32%. In addition, the inhibition at 1 µM in assay [1] turned out to be 62%; in assay [2], 41%; in assay [4], 36%; at IRAK4 enzyme, 98%; in assay [5], 87%. The same compound gave a half-maximal inhibitory concentration (IC50) against IRAK4 enzyme of 67.6 nM.
